Test results reported in patent US20250163056A1, “NONMUSCLE MYOSIN II INHIBITORS” (The University of Florida Research Foundation, Inc., priority 2018, published 2025).
“And” between values parts separate entries of the source, which are not always exact repeats. Equal entries are not always repeated. Where two headings read alike, the source gives them in different places.

Legend:
[1] = tested on: polydrug-associated memories; assay: Polydrug-associated memory CPP (METH/NIC, METH/MOR); format: in vivo, mice; conditions: Test 1 and Test 2, drugs on alternating days
Experimental: FIG. 6(A,B,C,D,E): Nonmuscle myosin II inhibition disrupts polydrug-associated memories when the drugs are administered on alternating days (A) Schematic of the experimental design. […] METH/NIC: Veh n=10; METH/NIC: Blebb n=10; METH/MOR: Veh n=19; METH/MOR: Blebb n=19; * p<0.05, ** p<0.01, *** p<0.001. Error bars represent±s.e.m.
The vast majority of individuals with substance use disorder are polydrug users. For example, most METH users also smoke. We recently made an unexpected discovery with direct relevance to polydrug use^76. When animals are treated with both METH and a drug that is impervious to Blebb on its own (nicotine or morphine), either concurrently or on alternating days, the nicotine and morphine memories become susceptible to immediate disruption by Blebb, akin to the effect on METH alone memories (FIG. 6). Thus, memories for previously impervious drugs of abuse become susceptible to NMII inhibition when METH associations are also formed. Importantly, this occurs when associative training is performed with METH and the other drug of abuse being administered simultaneously or separately, on different days. We are currently expanding our analysis to other commonly abused drugs, including other opioids, such as heroin, alcohol, cocaine and synthetic cathinones.

[2] = Brain and plasma distribution after IP dosing; format: in vivo, mice; conditions: 10 mg/kg
Experimental: FIG. 4: Brain and plasma distribution of blebbistatin after IP dosing at 10 mg/kg in mice.
(§1) The potential for systemic NMII inhibition to selectively target METH-associated memories in the way that intra-AMY administration does was also investigated. […] IP administered Blebbistatin also disrupts reconsolidation of memories for cocaine, nicotine and mephedrone, a result with additional potential therapeutic relevance in treating relapse^75-76. In addition, the BLC spine density increase that accompanies a METH-associated memory is reversed by Blebbistatin (FIG. 3C), without altering the spine density increase associated with a fear memory (FIG. 3D)^65, 74.

[3] = Photostability, percentage remaining undegraded under illumination or in the dark
[4] = tested on: hiPS cardiomyocytes (Cor.4U CMs); assay: Cardiac safety assay 1: beating parameters of cardiomyocytes (xCELLigence RTCA Cardio); format: cell-based, human; conditions: hiPS-derived cardiomyocytes
Experimental: The spontaneous contractions of cardiomyocytes (CMs) is measured label-free in real time using the ACEA xCELLigence RTCA Cardio instrument. All measurements are performed at 37° C. in a cell culture incubator, allowing for spontaneous beating of CMs at physiological conditions. Cor.4U CMs are seeded at 3×10^4 cells/well in 180 μl/well maintenance medium. Prior to seeding, a background impedance measurement (plate plus medium) is performed. The contraction of CMs involves cyclic modulation of cell morphology and adhesion inducing a delta change in impedance. From the cyclic changes in impedance a beating frequency, amplitude and effects on beating pattern can be calculated. Time point “0” (baseline) is recorded 10× for 20 seconds at 1 minute intervals. Thereafter, compounds and control (0.1% DMSO) are added to the wells and effects are measured 30 minutes later. Vehicle control is 0.1% DMSO and positive control is 100 nM isoproterenol. Compounds are tested at 0.1, 0.3, 1.0 and 3.0 uM. Data is collected at 5, 10, 15, 20 and 30 minutes, and 1, 4, 6, 12 and 24 hours post-incubation.

Bovine cardiac myosin = Bovine cardiac myosin (Bos taurus (Bovine), UniProt Q9BE39); assay: Cardiac muscle myosin II actin-activated ATPase assay (NADH-coupled); format: biochemical
Method in brief: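 Inhibitory constants came from a quadratic one-to-one binding fit of 16-point dose-responses (highest final 50 uM, triplicate). Rates were NADH-calibrated fluorescence slopes over 30 min at 25° C, with 300 nM bovine cardiac myosin, 10 μM actin and 1 mM ATP coupled through PK/LDH in pH 7.0 MOPS buffer.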

BLC spine density = BLC spine density associated with memory; conditions: in vivo
Text: FIG. 3(A,B,C,D): Systemic NMII inhibition selectively targets the storage of (A) a METH-associated memory, (B) having no effect on an auditory fear memory. Similarly, spine density associated with a METH-associated memory (C), but not a fear memory (D), is reduced.
as §1

Chain of Bovine cardiac myosin (Q9BE39 whole entry): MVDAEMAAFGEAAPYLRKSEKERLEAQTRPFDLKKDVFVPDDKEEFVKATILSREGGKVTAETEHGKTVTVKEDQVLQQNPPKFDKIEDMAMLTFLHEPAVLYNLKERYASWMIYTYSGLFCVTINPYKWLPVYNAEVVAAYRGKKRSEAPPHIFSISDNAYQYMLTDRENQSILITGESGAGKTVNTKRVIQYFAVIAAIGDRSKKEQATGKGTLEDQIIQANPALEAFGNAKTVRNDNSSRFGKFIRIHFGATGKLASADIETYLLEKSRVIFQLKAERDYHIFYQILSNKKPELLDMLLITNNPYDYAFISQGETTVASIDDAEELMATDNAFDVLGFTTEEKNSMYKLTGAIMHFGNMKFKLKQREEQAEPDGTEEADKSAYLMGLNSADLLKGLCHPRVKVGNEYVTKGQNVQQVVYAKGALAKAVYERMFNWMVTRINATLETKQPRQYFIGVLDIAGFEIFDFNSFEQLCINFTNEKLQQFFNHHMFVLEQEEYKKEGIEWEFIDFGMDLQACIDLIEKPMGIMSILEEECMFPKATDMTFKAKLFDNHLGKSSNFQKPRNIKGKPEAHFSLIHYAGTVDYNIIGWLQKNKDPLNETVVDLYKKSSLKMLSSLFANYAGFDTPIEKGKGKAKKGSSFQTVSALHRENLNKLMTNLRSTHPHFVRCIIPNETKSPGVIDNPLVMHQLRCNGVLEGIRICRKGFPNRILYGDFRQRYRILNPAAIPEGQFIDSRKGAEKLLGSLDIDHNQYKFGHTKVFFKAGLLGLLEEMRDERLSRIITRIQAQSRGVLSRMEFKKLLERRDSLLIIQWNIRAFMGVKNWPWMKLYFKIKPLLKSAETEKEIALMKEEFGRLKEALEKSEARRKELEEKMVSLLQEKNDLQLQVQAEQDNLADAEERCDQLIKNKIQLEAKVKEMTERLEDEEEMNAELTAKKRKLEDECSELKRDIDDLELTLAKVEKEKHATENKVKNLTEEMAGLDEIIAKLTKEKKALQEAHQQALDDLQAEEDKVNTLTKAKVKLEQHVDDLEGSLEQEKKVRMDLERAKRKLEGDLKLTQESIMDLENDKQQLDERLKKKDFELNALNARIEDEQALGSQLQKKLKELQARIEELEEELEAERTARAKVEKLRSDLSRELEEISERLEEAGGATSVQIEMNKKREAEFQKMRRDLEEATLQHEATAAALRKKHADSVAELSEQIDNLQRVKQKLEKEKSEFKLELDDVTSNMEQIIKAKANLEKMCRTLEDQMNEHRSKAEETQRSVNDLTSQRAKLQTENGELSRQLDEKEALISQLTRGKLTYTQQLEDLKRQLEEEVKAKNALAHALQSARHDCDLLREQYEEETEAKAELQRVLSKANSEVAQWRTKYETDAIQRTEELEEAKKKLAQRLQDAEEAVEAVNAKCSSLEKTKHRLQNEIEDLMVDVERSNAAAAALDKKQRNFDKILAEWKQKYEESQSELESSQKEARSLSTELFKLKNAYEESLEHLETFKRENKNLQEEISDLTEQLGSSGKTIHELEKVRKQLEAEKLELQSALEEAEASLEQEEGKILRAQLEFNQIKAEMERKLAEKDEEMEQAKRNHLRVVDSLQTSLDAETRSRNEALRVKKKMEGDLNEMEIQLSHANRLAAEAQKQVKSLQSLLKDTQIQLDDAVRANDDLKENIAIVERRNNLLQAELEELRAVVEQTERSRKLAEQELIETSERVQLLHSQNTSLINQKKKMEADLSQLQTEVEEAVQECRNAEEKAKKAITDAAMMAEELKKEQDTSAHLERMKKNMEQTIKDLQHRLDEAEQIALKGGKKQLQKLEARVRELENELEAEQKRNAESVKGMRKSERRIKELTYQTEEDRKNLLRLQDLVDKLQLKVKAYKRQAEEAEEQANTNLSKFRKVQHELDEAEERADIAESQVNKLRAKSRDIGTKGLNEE
Chain of Bovine cardiac myosin (P85100 whole entry partner): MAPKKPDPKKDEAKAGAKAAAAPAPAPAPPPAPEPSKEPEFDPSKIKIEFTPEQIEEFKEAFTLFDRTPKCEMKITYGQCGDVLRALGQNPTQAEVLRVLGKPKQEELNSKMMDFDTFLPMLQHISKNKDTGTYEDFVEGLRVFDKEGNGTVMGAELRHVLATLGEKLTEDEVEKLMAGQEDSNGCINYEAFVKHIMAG
Chain of Bovine cardiac myosin (Q3SZE5 whole entry partner): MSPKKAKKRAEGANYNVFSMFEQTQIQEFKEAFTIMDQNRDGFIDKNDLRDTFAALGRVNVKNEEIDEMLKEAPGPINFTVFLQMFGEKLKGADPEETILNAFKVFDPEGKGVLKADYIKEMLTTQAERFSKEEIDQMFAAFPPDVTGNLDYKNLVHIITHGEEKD

brain levels [2]: 90 µM | Photostability 4 hours ([3]; percentage remaining undegraded after 4 hours illumination): 82.9% | Photostability 24 hours ([3]; percentage remaining undegraded after 24 hours illumination): 9.3% | Photostability Dark (24 h) ([3]; percentage remaining undegraded in the dark, 24 h): >99% | Ki (Bovine cardiac myosin; 300 nM cardiac myosin, 10 μM actin, 25° C., read-out: CMMII KI): 1500 nM | CMMII/NMII Ratio (Bovine cardiac myosin; cardiac Ki relative to NMII EC50): 0.56 | Ki (Bovine cardiac myosin; cardiac muscle myosin II, read-out: CMMII Ki): 670 nM | Ratio CMMII:NMII Ki/EC50 (Bovine cardiac myosin; cardiac myosin II Ki over nonmuscle myosin II EC50): 0.789 and 0.8
SMILES: Cc1ccc2c(c1)C(=O)[C@]1(O)CCN(c3ccccc3)C1=N2 [Blebbistatin, reference compound]
METH/MOR CPP [1]: did not demonstrate a significant METH/MOR CPP during either test | METH/NIC CPP [1]: did not demonstrate a significant METH/NIC CPP during either test | Qualitative impact on contractility (e.g. Full = Complete inhibition of contraction) ([4]; 0.1 uM): No | Qualitative impact on contractility (e.g. Full = Complete inhibition of contraction) ([4]; 0.3 uM): Partial | Qualitative impact on contractility (e.g. Full = Complete inhibition of contraction) ([4]; 1.0 uM): 1.0u M: Full 3.0 uM: Full | Change in amplitude at 1 uM @ 15 min ([4]; 1 uM, 15 min): −57.9 ± 12.8% | Qualitative impact on contractility (e.g. Full = Complete inhibition of contraction) ([4]; 3.0 uM): 1.0u M: Full 3.0 uM: Full | BLC spine density increase accompanying a METH-associated memory (BLC spine density): reversed
